How the values were obtained:
Assay type in all cases: cell-based
HIV-1 [1] = assay: Experiment la(1): HIV-1 infected 81-66-45 cells
L major/L mexicana [2] = assay: Amastigote-promastigote (AM-PRO) transformation, in-vitro; details: Lm.
HIV-I = assay: Experiment la(a): macrophage cells, HIV-I, p24 antigen capture radio-immunoassay; details: for TITER: control titer 100000; for wells positive for HIV-I p24, LOG VIRUS DILUTION -1 / wells positive for HIV-I p24, LOG VIRUS DILUTION -2 / wells positive for HIV-I p24, LOG VIRUS DILUTION -3 / wells positive for HIV-I p24, LOG VIRUS DILUTION -4 / wells positive for HIV-I p24, LOG VIRUS DILUTION -5 / wells positive for HIV-I p24, LOG VIRUS DILUTION -6: duplicate runs
Procedure: Fresh macrophage cultures were obtained by incubation of mononuclear cells obtained from a leukopak directly in the wells of a microtiter plate having 6 wells per row. After removal of non-adherent cells, each row of the adherent macrophages was infected with 10-fold serial dilutions of HIV-I, with the use of polybrene to enhance uptake of the virus. After one to two hours, the virus inoculum was removed and replaced with fresh normal growth medium. The fresh medium for each row contained a particular concentration of AZT, dideoxy cytidine (ddC), or compound la, as indicated by the left-hand column of Table la(a). The first row of wells acted as a control, and to it was added fresh medium containing none of the three drugs. Medium levels were maintained for two to four weeks to allow replication of the virus to take place, with at least one complete fluid change to remove residual virus inoculum. The contents of each well were then tested for the level of HIV p24 antigen present using a commercially available antigen capture kit employing a radio-immunoassay which can detect as little as 10'^9gm of p24 present in a sample. The above procedure was done in duplicate runs.
The results were interpreted as follows: 2/2, for example, means that both the corresponding wells of both runs were positive for HIV-I p24, while 0/2 means that neither well was positive. The titers are given in the next to last column; where 1/2 wells was positive, an intermediate value was given to the titer that is half way between the two dilutions when calculated on a logarithmic scale. 3 µM IPA was positive in both wells at a dilution of 1/10,000 and in neither well at 1/100,000. Thus, one half log interval between 10^4 and 10^5 is 10^4.5, or 30,000.

L major/L mexicana [3] = assay: Leishmania promastigote (PRO) in-vitro screen; details: Lm.
Description: (§1) Following initial infection, the amastigote is the only form present in the mammalian host, surviving and dividing in various macrophage populations. Differences between the promastigote and amastigote in form and habitat are not matched by known biochemical dissimilarities. However, the drug susceptibility of the cultured promastigote, used in many early chemotherapy screens, contrasts markedly with that of the amastigote (see Table 1, below), most importantly to the clinically used pentavalent antimonials - sodium stibogluconate (Pentostam) and meglumine antimoniate (Glucantime).
(§2) Amastigotes of Leishmania can be cultivated in a wide range of mammalian cells, some of which may be used in in-vitro screens. These include (1) a Sticker dog sarcoma (fibroblast) cell line, (2) transformed rodent macrophage cell lines, (3) primary isolated mouse peritoneal macrophages (MP mo), and (4) human monocyte-derived macrophages (HM mo). The methods are similar for all models. Amastigote or promastigote infected cells are maintained in a medium containing the drug for 4-7 days, at 37 C for L. donovani and 33-35 C for L. major and L. mexicana. Drug activity is then assessed by counting (I) the number of infected host cells and/or (II) the number of amastigotes/100 host cells.
(§3) In-vitro and in-vivo models were used to test activities of a selection of many compounds. Those activities are summarized in Tables 1-3, showing variation between systems and species. Activities measured in the MP mo and HM mo models have shown the best correlation with results obtained in hamster and mouse models.

L donovani = assay: Leishmania promastigote (PRO) in-vitro screen; details: Ld.
Description: as §1, §2, §3

HIV-1 [4] = assay: HIV-1 production from patients' lymphocytes cocultured with PHA-stimulated normal PBL, p24 antigen capture; details: 3.75 µM or higher; Figure 14
Procedure: HIV-1 production from an AIDS patients' lymphocytes was carried out as described previously. Briefly, 10x10^6 patients' lymphocytes were cocultured with 5x10^6 PHA-stimulated normal PBL in RPMI 1640 medium containing 20% FBS, 5% interleukin 2 (Cellular Products, Buffalo, NY) and various concentrations of IPA. The culture was continued for 4 weeks. The culture was fed twice a week with 2-3x10^6 PHA-stimulated normal PBL. Culture medium was withdrawn twice a week and tested for the presence of HIV by the antigem capture test. Culture medium was replaced with new medium with or without drug at 3-4 days intervals.
A study of IPA inhibition of HIV-1 production from lymphocytes of a HIV-1 seropositive patient was carried out. For this purpose, lymphocytes from an AIDS patient and an asymtomatic patient were cocultured with PHA stimulated PBL in the presence or absence of IPA. Results shown in Figure 14 indicate that IPA inhibited HIV-1 production in a dose dependent manner. […] In contrast, HIV-1 was detected in untreated cultures as early as 7 days following cocultivation.

What does the source list for `CC(C)=CCNc1ncnc2c1ncn2[C@@H]1O[C@H](CO)[C@@H](O)[C@H]1O` [IPA, N^6-(Δ^2-isopentenyl) adenosine]?
IC50 (HIV-1 [1]; Human immunodeficiency virus 1, from Figures 16 and 17, read-out: IC50 - The concentration of IPA which inhibits the replication of HIV-1 by 50%): 6 µM; IC90 (HIV-1 [1]; Human immunodeficiency virus 1, from Figures 16 and 17, read-out: IC90 - The concentration of IPA which inhibits the replication of HIV-1 by 90%): 10 µM; Activity, AM-PRO transform-ation (L major/L mexicana [2]): + +; activity at 3 µM (HIV-I; Human immunodeficiency virus 1, Macrophage, drug 3 μM, titer relative to control, read-out: PERCENT OF CONTROL): 30%; activity at 10 µM (HIV-I; Human immunodeficiency virus 1, Macrophage, drug 10 μM, titer relative to control, read-out: PERCENT OF CONTROL): 10%; activity at 30 µM (HIV-I; Human immunodeficiency virus 1, Macrophage, drug 30 μM, titer relative to control, read-out: PERCENT OF CONTROL): 1%; activity at 100 µM (HIV-I; Human immunodeficiency virus 1, Macrophage, drug 100 μM, titer relative to control, read-out: PERCENT OF CONTROL): 0.3%; activity at 300 µM (HIV-I; Human immunodeficiency virus 1, Macrophage, drug 300 μM, titer relative to control, read-out: PERCENT OF CONTROL): 0%; activity at 1000 µM (HIV-I; Human immunodeficiency virus 1, Macrophage, drug 1000 μM, titer relative to control, read-out: PERCENT OF CONTROL): 0%; TITER (HIV-I; drug 3 μM): 30000; wells positive for HIV-I p24, LOG VIRUS DILUTION -1 (HIV-I; drug 3 μM): 2/2; wells positive for HIV-I p24, LOG VIRUS DILUTION -2 (HIV-I; drug 3 μM): 2/2; wells positive for HIV-I p24, LOG VIRUS DILUTION -3 (HIV-I; drug 3 μM): 2/2; wells positive for HIV-I p24, LOG VIRUS DILUTION -4 (HIV-I; drug 3 μM): 2/2; wells positive for HIV-I p24, LOG VIRUS DILUTION -5 (HIV-I; drug 3 μM): 0/2; wells positive for HIV-I p24, LOG VIRUS DILUTION -6 (HIV-I; drug 3 μM): 0/2; TITER (HIV-I; drug 10 μM): 10000; wells positive for HIV-I p24, LOG VIRUS DILUTION -1 (HIV-I; drug 10 μM): 2/2; wells positive for HIV-I p24, LOG VIRUS DILUTION -2 (HIV-I; drug 10 μM): 2/2; wells positive for HIV-I p24, LOG VIRUS DILUTION -3 (HIV-I; drug 10 μM): 2/2; wells positive for HIV-I p24, LOG VIRUS DILUTION -4 (HIV-I; drug 10 μM): 1/2; wells positive for HIV-I p24, LOG VIRUS DILUTION -5 (HIV-I; drug 10 μM): 0/2; wells positive for HIV-I p24, LOG VIRUS DILUTION -6 (HIV-I; drug 10 μM): 0/2; TITER (HIV-I; drug 30 μM): 1000; wells positive for HIV-I p24, LOG VIRUS DILUTION -1 (HIV-I; drug 30 μM): 2/2; wells positive for HIV-I p24, LOG VIRUS DILUTION -2 (HIV-I; drug 30 μM): 2/2; wells positive for HIV-I p24, LOG VIRUS DILUTION -3 (HIV-I; drug 30 μM): 1/2; wells positive for HIV-I p24, LOG VIRUS DILUTION -4 (HIV-I; drug 30 μM): 0/2; wells positive for HIV-I p24, LOG VIRUS DILUTION -5 (HIV-I; drug 30 μM): 0/2; wells positive for HIV-I p24, LOG VIRUS DILUTION -6 (HIV-I; drug 30 μM): 0/2; TITER (HIV-I; drug 100 μM): 300; wells positive for HIV-I p24, LOG VIRUS DILUTION -1 (HIV-I; drug 100 μM): 2/2; wells positive for HIV-I p24, LOG VIRUS DILUTION -2 (HIV-I; drug 100 μM): 2/2; wells positive for HIV-I p24, LOG VIRUS DILUTION -3 (HIV-I; drug 100 μM): 0/2; wells positive for HIV-I p24, LOG VIRUS DILUTION -4 (HIV-I; drug 100 μM): 0/2; wells positive for HIV-I p24, LOG VIRUS DILUTION -5 (HIV-I; drug 100 μM): 0/2; wells positive for HIV-I p24, LOG VIRUS DILUTION -6 (HIV-I; drug 100 μM): 0/2; TITER (HIV-I; drug 300 μM): 10; wells positive for HIV-I p24, LOG VIRUS DILUTION -1 (HIV-I; drug 300 μM): 0/2; wells positive for HIV-I p24, LOG VIRUS DILUTION -2 (HIV-I; drug 300 μM): 0/2; wells positive for HIV-I p24, LOG VIRUS DILUTION -3 (HIV-I; drug 300 μM): 0/2; wells positive for HIV-I p24, LOG VIRUS DILUTION -4 (HIV-I; drug 300 μM): 0/2; wells positive for HIV-I p24, LOG VIRUS DILUTION -5 (HIV-I; drug 300 μM): 0/2; wells positive for HIV-I p24, LOG VIRUS DILUTION -6 (HIV-I; drug 300 μM): 0/2; TITER (HIV-I; drug 1000 μM): 10; wells positive for HIV-I p24, LOG VIRUS DILUTION -1 (HIV-I; drug 1000 μM): 0/2; wells positive for HIV-I p24, LOG VIRUS DILUTION -2 (HIV-I; drug 1000 μM): 0/2; wells positive for HIV-I p24, LOG VIRUS DILUTION -3 (HIV-I; drug 1000 μM): 0/2; wells positive for HIV-I p24, LOG VIRUS DILUTION -4 (HIV-I; drug 1000 μM): 0/2; wells positive for HIV-I p24, LOG VIRUS DILUTION -5 (HIV-I; drug 1000 μM): 0/2; wells positive for HIV-I p24, LOG VIRUS DILUTION -6 (HIV-I; drug 1000 μM): 0/2; Activity, PRO (L major/L mexicana [3]): +; Activity, PRO (L donovani): + +; Virus production (HIV-1 p24 antigen capture assay) (HIV-1 [4]): completely blocked
